Experimental data as given in publication PMC9227586, “UHPLC-MS Metabolomic Fingerprinting, Antioxidant, and Enzyme Inhibition Activities of Himantormia lugubris from Antarctica” (Metabolites, 2022).
pIC50: −log10 of the molar value. Where two headings read alike, the source gives them in different places. Marks after values point to notes of the source that are not given here.

How the values were obtained:
DPPH scavenging activity = conditions: bleaching of DPPH at 515 nm after 30 min
Description: The potential bleaching of the radical DPPH, using a Synergy HTX microplate reader, was determined by mixing 50 µL of extract or standard with 150 µL of DPPH solution; the determinations were made in triplicate by monitoring the bleaching of DPPH at 515 nm after 30 min of reaction. The results are expressed as IC50 in µg of standard or extract per mL. The data are reported as the mean ± SD.

[1] = Oxygen radical absorbance capacity (ORAC) assay
Description: The ORAC assay was performed as previously described. Quantification was performed using a standard curve of the antioxidant Trolox, then the measurement was performed using a solution of the Trolox, blank, and 40 µL of extract in different wells of the microplate reader. The results were obtained by constructing the equations (Trolox/samples vs. fluorescence decay curves) and expressed in μmol Trolox equivalents per grams of dry lichen. The tests were performed in triplicate and the results are reported as the mean ± SD.

[2] = molecular target: T1, acetylcholinesterase (AChE, EC 3.1.1.7) (Homo sapiens, UniProt P22303); assay: biochemical; conditions: 37 °C; for IC50: Ellman method, read-out: AChE IC50 (converted)
T1 construct: purchased Sigma (St. Louis, MO, USA)
Description: (§1) Inhibition of AChE activity was determined according to the Ellman method, as previously reported. The samples (2 mg/mL) were prepared by mixing tris-HCl buffer (50 mM, pH 8.0), enzyme solution (AChE or BChE), and 5-dithio-bis (2-nitrobenzoic acid) (DTNB) at pH 8.0. The reaction was started by adding acetyl-thiocholine iodide (ATCI) or butyryl-thiocholine chloride (BTCl). The absorbance of the extract was measured at 405 nm for 30 min at 37 °C. Three experiments were performed in triplicate in each test and the values are reported as the mean ± SD. The results were expressed as IC50 (µg/mL, the final concentration of the plate ranged from 0.05 to 25 μg/mL).

[3] = molecular target: T2, butyrylcholinesterase (BChE, EC 3.1.1.8) (Homo sapiens, UniProt P06276); assay: biochemical; conditions: for IC50: Ellman method, 37 °C, read-out: BChE IC50 (converted)
T2 construct: purchased Sigma (St. Louis, MO, USA)
Description: as §1

[4] = Ferric-reducing antioxidant power assay (FRAP); conditions: absorbance at 593 nm after 5 min
Description: The FRAP test was performed as described previously. A standard curve of the antioxidant Trolox was plotted, then the measurement was performed with 290 µL of extract and its absorbance was measured at 593 nm after 5 min. The results were expressed in mg of Trolox equivalent per g of dry lichen. The experiments were performed in triplicate and the values are expressed as the mean ± SD.

BChE = conditions: cited from earlier work
AChE = conditions: cited from earlier work
tyrosinase = conditions: cited from earlier work

T2 sequence (P06276 29-602): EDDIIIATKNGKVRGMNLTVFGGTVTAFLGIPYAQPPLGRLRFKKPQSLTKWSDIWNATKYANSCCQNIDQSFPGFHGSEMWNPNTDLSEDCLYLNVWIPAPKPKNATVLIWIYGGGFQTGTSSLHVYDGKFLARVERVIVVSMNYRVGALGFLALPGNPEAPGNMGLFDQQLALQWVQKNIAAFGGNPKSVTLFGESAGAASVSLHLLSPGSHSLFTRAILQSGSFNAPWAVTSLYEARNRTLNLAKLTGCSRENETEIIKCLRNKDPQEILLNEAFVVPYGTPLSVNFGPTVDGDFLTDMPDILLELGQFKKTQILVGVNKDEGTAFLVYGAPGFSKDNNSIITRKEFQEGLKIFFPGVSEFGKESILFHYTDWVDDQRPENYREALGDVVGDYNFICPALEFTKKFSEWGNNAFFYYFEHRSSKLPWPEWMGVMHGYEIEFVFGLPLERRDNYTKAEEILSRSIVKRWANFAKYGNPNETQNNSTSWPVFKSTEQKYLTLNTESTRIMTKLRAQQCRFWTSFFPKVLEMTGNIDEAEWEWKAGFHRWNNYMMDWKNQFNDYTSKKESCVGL
T1 sequence (P22303 32-614, species assumed): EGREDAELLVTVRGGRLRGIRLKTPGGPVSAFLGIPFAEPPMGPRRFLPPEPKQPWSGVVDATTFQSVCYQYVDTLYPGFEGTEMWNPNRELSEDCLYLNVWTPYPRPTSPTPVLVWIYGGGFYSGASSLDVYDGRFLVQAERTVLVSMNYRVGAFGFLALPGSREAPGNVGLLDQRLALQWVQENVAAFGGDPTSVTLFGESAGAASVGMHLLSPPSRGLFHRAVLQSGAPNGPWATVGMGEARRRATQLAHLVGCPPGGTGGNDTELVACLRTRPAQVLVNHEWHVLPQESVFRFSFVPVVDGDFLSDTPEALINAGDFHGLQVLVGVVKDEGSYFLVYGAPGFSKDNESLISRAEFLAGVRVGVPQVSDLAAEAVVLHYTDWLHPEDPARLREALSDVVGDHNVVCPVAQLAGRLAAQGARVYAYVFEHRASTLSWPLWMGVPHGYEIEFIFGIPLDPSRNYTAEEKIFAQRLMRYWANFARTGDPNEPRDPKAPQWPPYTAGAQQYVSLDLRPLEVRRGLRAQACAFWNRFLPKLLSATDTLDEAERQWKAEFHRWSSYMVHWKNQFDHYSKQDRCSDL

SMILES	DPPH antiradical activity (IC50) (DPPH scavenging activity) [µg/mL]	ORAC [1] [μmol Trolox/g lichen]	IC50 [2] [µM]	IC50 [3] [µM]	FRAP [4]	also measured
Cc1cc(O)c(C=O)c(O)c1 [Atranol, atranol]	21.04 ± 0.02	176.28 ± 0.84	189	239	29.32 ± 0.0 ^a μmol Trolox/g lichen	–
O=C(O)c1cc(O)c(O)c(O)c1 [Gallic acid, reference compound]	2.24 ± 0.04	–	–	–	45.5 ± 0.00 μmol Trolox/g lichen	–
C[C@@H]1O[C@@H](O[C@@H]2C(=O)c3c(O)cc(O)cc3O[C@@H]2c2ccc(O)c(O)c2)[C@H](O)[C@H](O)[C@H]1O [isoastilbin]	–	–	–	–	–	BChE inhibition (BChE; at 2.2 µM): 50.10%; AChE inhibition (AChE; at 2.2 µM): 51.70%
CC(=O)C1=C(O)C=C2Oc3c(C(C)=O)c(O)c(C)c(O)c3[C@@]2(C)C1=O [(+) usnic acid]	–	–	–	–	–	tyrosinase inhibition (tyrosinase; at the dose of 250 μg/mL): 9.1%
Cc1c(O)cc2c(c1O)C(=O)OC2 [5,7-dihydroxy-6-methylphthalide]	12.52 ± 0.02	373.65 ± 1.05	70.5	108	36.91 ± 0.0 μmol Trolox/g lichen	–
CC(=O)c1c(O)c(C)c(O)c2c1OC1=CC(=O)C(C(C)=O)C(=O)C12C (stereo not drawn) [Usnic acid]	55.25 ± 0.04	122.73 ± 1.0	–	–	22.4 ± 0.00 μmol Trolox/g lichen	pIC50 ([2]; AChE IC50, Ellman method): 5.19; pIC50 [3]: 4.90; pIC50 (BChE; reported previously): 8.47; pIC50 (AChE; reported previously): 8.90
Cc1cc(O)cc(O)c1C(=O)O [orsellinic acid, 2,4-dihydroxy-6-methylbenzoic acid]	–	–	–	–	–	inhibition of tyrosinase activity (tyrosinase): 63.35%
Cc1cc(OC(=O)c2c(C)cc(O)cc2O)cc(O)c1C(=O)O [lecanoric acid]	–	–	–	–	–	inhibition of tyrosinase activity (tyrosinase): 82.69%
Cc1cc(O)c(C=O)c2c1C(=O)Oc1c(COC(=O)/C=C/C(=O)O)c(O)c(C(=O)O)c(C)c1O2 [fumarprotocetraric acid]	–	–	–	–	–	inhibition of tyrosinase activity (tyrosinase; at 0.6 mM): 39.8%
Cc1cc(O)c(C=O)c(O)c1C(=O)OCc1cc(O)c(C=O)c(O)c1C(=O)O [Barbatolic acid, barbatolic acid]	62.55 ± 0.01	101.11 ± 0.71	44.6	61.4	28.10 ± 0.0 ^a μmol Trolox/g lichen	–
